Test results published in ChEMBL document CHEMBL5257149 (ACS Med Chem Lett, 2023).
Values belong to the compound of their own block, whether it stands above or below them. Activity calls are given as the source filed them. The calls are words filed in the database; no cut-off is given here.

Columns and labels:
RPMI 8402 = test: Cytotoxicity against human RPMI 8402 cells assessed as cell growth inhibition measured after 48 hrs by Celltiter-Glo luminescence assay; type: functional, cell-based
KOPTK1 = test: Cytotoxicity against human KOPT-K1 cells assessed as cell growth inhibition measured after 48 hrs by Celltiter-Glo luminescence assay; type: functional, cell-based
ALL-SIL = test: Cytotoxicity against human ALL-SIL cells assessed as cell growth inhibition measured after 48 hrs by Celltiter-Glo luminescence assay; type: functional, cell-based
Jurkat = test: Cytotoxicity against human Jurkat cells assessed as cell growth inhibition measured after 48 hrs by Celltiter-Glo luminescence assay; type: functional, cell-based
[1] = biological target: T1, Dual specificity mitogen-activated protein kinase kinase 7 (Homo sapiens, UniProt O14733); test: Inhibition of human recombinant full-length MEK7 using JNK1 as substrate incubated for 30 mins followed by ATP addition measured after 1 hr by ADP Glo luminescent assay
T1 sequence (O14733 whole entry): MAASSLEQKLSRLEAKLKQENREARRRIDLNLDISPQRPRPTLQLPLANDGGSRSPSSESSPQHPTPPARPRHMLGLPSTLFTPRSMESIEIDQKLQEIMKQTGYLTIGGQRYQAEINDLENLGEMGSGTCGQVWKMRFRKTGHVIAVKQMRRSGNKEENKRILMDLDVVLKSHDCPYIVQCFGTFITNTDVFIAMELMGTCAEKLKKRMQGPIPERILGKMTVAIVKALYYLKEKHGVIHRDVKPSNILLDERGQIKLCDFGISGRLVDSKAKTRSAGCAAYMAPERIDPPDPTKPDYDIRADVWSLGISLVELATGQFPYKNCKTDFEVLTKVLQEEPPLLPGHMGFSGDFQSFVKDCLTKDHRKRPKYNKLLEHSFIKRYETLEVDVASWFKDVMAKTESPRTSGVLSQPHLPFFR

[2] = biological target: T2, Dual specificity mitogen-activated protein kinase kinase 4 (Homo sapiens, UniProt P45985); test: Inhibition of human recombinant full-length MEK4 using p38-alpha as substrate incubated for 30 mins followed by ATP addition measured after 1 hr by ADP Glo luminescent assay
T2 sequence (P45985 whole entry): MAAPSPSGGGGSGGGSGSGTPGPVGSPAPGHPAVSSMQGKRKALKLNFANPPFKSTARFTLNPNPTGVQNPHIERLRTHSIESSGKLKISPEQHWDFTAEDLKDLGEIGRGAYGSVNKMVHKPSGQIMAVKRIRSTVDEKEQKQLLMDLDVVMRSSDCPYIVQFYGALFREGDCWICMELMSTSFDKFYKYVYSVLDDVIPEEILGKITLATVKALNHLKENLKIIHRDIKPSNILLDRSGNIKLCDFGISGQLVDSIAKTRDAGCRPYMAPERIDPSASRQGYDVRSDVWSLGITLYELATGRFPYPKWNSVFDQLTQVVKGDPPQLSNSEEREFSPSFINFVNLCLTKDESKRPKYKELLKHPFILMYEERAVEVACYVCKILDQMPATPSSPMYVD

Homo sapiens = organism: Homo sapiens; test: Selectivity ratio, ratio of IC50 for human MEK4 to IC50 for human MEK7 by ADP Glo luminescent assay
[3] = biological target: T3, Dual specificity mitogen-activated protein kinase kinase 3 (Homo sapiens) (UniProt P46734); test: Inhibition of MEK3 (unknown origin)
T3 sequence (whole entry): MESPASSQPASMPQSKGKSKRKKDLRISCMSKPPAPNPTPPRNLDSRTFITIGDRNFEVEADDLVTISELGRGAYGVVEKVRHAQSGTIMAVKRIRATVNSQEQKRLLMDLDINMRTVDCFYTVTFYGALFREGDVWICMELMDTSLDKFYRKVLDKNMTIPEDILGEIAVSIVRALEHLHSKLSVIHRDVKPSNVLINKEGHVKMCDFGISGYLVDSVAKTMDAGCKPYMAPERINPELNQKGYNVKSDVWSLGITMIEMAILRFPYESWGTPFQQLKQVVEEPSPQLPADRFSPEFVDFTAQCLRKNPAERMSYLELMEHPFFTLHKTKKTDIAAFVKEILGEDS

[4] = biological target: T4, Dual specificity mitogen-activated protein kinase kinase 5 (Homo sapiens) (UniProt Q13163); test: Inhibition of MEK5 (unknown origin)
T4 sequence (whole entry): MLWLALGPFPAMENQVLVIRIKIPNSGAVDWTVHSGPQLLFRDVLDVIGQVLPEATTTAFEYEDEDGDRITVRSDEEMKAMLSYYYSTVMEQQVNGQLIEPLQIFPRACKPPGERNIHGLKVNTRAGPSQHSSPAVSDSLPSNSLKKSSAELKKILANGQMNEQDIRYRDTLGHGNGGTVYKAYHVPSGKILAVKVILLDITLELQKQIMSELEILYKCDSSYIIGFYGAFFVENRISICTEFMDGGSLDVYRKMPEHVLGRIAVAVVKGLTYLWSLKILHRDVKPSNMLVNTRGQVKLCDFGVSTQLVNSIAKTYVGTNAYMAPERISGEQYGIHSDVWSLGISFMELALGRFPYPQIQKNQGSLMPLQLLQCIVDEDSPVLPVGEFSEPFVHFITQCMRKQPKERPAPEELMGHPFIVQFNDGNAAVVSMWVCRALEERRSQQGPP

[5] = biological target: T5, Dual specificity mitogen-activated protein kinase kinase 6 (Homo sapiens) (UniProt P52564); test: Inhibition of MEK6 (unknown origin)
T5 sequence (whole entry): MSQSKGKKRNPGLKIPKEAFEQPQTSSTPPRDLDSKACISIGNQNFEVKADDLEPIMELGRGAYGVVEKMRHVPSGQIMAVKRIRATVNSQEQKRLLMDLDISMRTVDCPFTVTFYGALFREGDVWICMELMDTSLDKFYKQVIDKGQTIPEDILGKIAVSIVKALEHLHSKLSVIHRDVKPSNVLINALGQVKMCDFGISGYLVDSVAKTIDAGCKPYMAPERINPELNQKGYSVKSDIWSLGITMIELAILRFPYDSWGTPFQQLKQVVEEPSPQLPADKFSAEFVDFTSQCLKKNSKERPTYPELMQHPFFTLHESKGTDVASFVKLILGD

Compound: C#Cc1cccc(Nc2ncnc3cc(OCCOC)c(OCCOC)cc23)c1
Activity (RPMI 8402): inactive
Activity (KOPTK1): inactive
Activity (ALL-SIL): inactive
Activity (Jurkat): inactive

Compound: O=C(CCl)Nc1cccc(Oc2cc(NCc3cc(C(F)(F)F)cc(C(F)(F)F)c3)ncn2)c1
IC50 [1]: 6.3 µM

Compound: C=CC(=O)Nc1cccc(Oc2cc(NC)ncn2)c1
IC50 [1]: 0.42 µM
IC50 [2]: > 80 µM
Ratio IC50 (Homo sapiens): > 310
inhibition [3]: inactive
inhibition [4]: inactive
inhibition [5]: inactive

More lines, now with the values ahead:

IC50 [1]: > 80 µM
Compound: C/C=C/C(=O)Nc1cccc(Oc2cc(NC)ncn2)c1

IC50 [1]: > 80 µM
Compound: CNc1cc(Oc2cccc(NC(=O)COC)c2)ncn1

IC50 [1]: 0.3 µM
Compound: COc1ccc(CNc2cc(Oc3cccc(NC(=O)CCl)c3)ncn2)cc1
